Assay [1] addresses Prostaglandin G/H synthase 1 (Homo sapiens, UniProt P23219).
Description: In vitro inhibitory activity towards human platelet recombinant Prostaglandin G/H synthase 1
The target in assay [2] is T1, Prostaglandin G/H synthase 2 (Homo sapiens, UniProt P35354).
T1 sequence (P35354 whole entry): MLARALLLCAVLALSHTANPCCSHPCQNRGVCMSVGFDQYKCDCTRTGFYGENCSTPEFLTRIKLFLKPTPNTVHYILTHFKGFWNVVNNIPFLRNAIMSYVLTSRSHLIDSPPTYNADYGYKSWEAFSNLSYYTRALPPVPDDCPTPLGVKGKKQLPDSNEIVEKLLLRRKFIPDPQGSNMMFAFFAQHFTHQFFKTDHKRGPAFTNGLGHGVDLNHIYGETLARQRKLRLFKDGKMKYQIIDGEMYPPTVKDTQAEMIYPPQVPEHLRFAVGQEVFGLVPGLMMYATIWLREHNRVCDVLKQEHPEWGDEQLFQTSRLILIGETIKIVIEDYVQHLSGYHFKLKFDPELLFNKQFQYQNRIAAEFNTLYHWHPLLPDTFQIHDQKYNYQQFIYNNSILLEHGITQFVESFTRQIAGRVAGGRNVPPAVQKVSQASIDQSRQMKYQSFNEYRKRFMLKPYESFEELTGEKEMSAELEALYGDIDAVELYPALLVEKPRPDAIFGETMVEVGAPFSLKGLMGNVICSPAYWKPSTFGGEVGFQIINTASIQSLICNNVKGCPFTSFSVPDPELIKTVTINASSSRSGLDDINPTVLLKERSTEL
Description: In vitro inhibitory activity towards human recombinant Prostaglandin G/H synthase 2 enzyme

These results are taken from ChEMBL document CHEMBL1135096, “4-Aryl/cycloalkyl-5-phenyloxazole derivatives as selective COX-2 inhibitors” (Bioorg Med Chem Lett, 2002).

For orientation: IC50 means the concentration at which inhibition is half-maximal. Read a low IC50 as greater potency in that assay.

Chain of Prostaglandin G/H synthase 1 (P23219 whole entry): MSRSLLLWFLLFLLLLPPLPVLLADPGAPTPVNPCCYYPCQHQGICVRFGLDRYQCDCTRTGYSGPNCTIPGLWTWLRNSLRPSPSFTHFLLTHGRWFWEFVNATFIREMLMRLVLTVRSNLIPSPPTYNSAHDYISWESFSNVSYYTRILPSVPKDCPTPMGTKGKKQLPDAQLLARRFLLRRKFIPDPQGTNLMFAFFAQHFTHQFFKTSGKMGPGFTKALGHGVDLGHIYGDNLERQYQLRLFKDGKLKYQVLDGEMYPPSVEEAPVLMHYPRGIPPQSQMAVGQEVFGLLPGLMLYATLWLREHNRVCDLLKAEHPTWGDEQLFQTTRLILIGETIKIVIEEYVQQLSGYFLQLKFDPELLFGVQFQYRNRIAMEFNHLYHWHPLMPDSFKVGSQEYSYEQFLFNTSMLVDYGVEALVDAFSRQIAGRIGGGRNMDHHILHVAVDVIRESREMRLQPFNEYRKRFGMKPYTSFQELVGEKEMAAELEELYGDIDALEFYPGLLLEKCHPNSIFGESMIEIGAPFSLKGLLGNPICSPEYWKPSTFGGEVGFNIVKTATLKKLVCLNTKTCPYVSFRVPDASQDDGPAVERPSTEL

For `Cc1nc(-c2ccc(F)cc2)c(-c2ccc(S(C)(=O)=O)cc2)o1`, the IC50 was 42 µM in assay [1] and 0.07 µM in assay [2].
For `Cc1nc(C2CCCC2)c(-c2ccc(S(C)(=O)=O)cc2)o1` the same measures were > 100 µM and 18 µM.
On the same counts, the results for `CCc1ccc(-c2nc(C)oc2-c2ccc(S(C)(=O)=O)cc2)s1` are > 100 µM and 0.14 µM.
Take `Cc1nc(-c2ccc(F)cc2)c(-c2ccc(S(N)(=O)=O)cc2)o1`: the IC50 came to 4.7 µM in assay [1] and 0.024 µM in assay [2].
Consider `Cc1nc(C2CCCCCC2)c(-c2ccc(S(C)(=O)=O)cc2)o1`, for which the IC50 in assay [1] is > 100 µM.
For `CS(=O)(=O)c1ccc(-c2oc(-c3ccccc3)nc2C2CCCCC2)cc1`, the IC50 in assay [1] and in assay [2] was > 100 µM in each case.
As to `Cc1nc(-c2ccc(S(C)(=O)=O)cc2)c(-c2ccc(F)cc2)o1`, the IC50 is > 100 µM in assay [1] and 2.1 µM in assay [2].
On the same counts, the results for `Cc1nc(-c2ccccc2)c(-c2ccc(S(C)(=O)=O)cc2)o1` are > 100 µM and 0.09 µM.
Take `Cc1nc(C2CCCCC2)c(-c2ccc(S(C)(=O)=O)cc2)o1`: the IC50 in assay [1] was > 100 µM.
In the case of `CCc1nc(C2CCCCC2)c(-c2ccc(S(C)(=O)=O)cc2)o1`, the IC50 in assay [1] was 60 µM; in assay [2], 0.27 µM.
On to `Cc1nc(C2CCCCC2)c(-c2ccc(S(N)(=O)=O)cc2)o1`, for which the IC50 in assay [1] was 47.5 µM. In other words, the double-digit micromolar range.
Same read-out and setting: the value for `Cc1nc(-c2ccc(S(C)(=O)=O)cc2)c(-c2ccc(Cl)s2)o1` was 93 µM.
Regarding `CCS(=O)(=O)c1ccc(-c2oc(C)nc2-c2ccc(F)cc2)cc1`, the IC50 in assay [1] was > 100 µM; in assay [2] it was 38 µM.
On the same counts, the results for `CNS(=O)(=O)c1ccc(-c2oc(C)nc2C2CCCCC2)cc1` are > 100 µM and 3.1 µM.
